Data on 25 compounds can be found in patent US12383548B2, “Antibacterial quinolines” (priority 2019, dated 2025).

SMILES strings stand for the structures. Values after ≈ are worked out from the molar mass of the structure shown. Where a name gives a salt, the structure may show the parent alone. Read-outs that look alike come from different tables or passages of the source. Some results are limits rather than exact numbers.

The subject of data set [1] is susceptible H37Rv M. tuberculosis, strain ATCC 25618. As to the kind of experiment: Mycobacterium tuberculosis susceptibility assay REMA (resazurin microtiter assay). Conditions: for MIC: Mycobacterium tuberculosis, 144 h, read-out: REMA MIC. Further details: REMA MIC: unit not given here. In kind it is cell-based.
Data set [2] deals with HepG2 cell line. As to the kind of experiment: in vitro cytotoxicity assay (MTS tetrazolium reduction, cell viability). The format is cell-based. The settings on record: Homo sapiens, HepG2, 48 h. Here is the method:
In an embodiment, the in vitro cytotoxicity assay was carried out as follows. […] The assay was performed in 96 well plates for 48 h at 37° C. and 5% CO2 in incubation medium (low glucose DMEM with Glutamax, 10% FBS, 1% Pen/Strep and DMSO). Cells were exposed to 8 different compound concentrations in successive dilutions (usually, base 2), plus a positive control (a compound in a concentration known to decrease cell viability above 50%) and a negative control (incubation medium). Six replicate wells were assayed for each condition. Compound stock solutions were prepared in DMSO at 20 mM, whenever possible, filter sterilized, aliquoted and stored at −20° C. The maximum compound concentrations tested depend on its solubility in incubation medium, and on the maximum DMSO percentage allowable without loss of cell viability. At the end of the incubation period, tetrazolium reagent was added (CellTiter 96® AQueous Solution from Promega); cells were incubated for another 3 hours in order to promote tetrazolium reduction to formazan by viable cells. The amount of soluble formazan produced was evaluated by 490 nm absorbance reading in a spectrophotometer plate reader.
Background: Tetrazolium dyes change colour on reduction, which living cells bring about.

Data set [3] can be described thus: in vitro. In kind it is in vitro ADME. The settings on record: human, plasma. Here is the method: The percentage of the test compounds remaining after incubation in plasma and their half-lives (T1/2) were calculated.
Data set [4] can be described thus: physchem. The format is physicochemical. Conditions: pH 7.4. Here is the method: The solution was allowed to mix in a rotator for 1 hour at 30 rpm.
Data set [5] can be described thus: in vitro. The format is in vitro ADME. Conditions: human, plasma, pH 7.4.
Protocol: The assay was performed in a multiple-use 96-well dialysis unit (HTD96b dialyzer). […] 120 μl of non-diluted plasma spiked with the compound (1 μM, 1% final DMSO concentration) was added to one chamber and the same volume of phosphate buffer saline pH 7.4 to the other chamber. HTD96b dialyzer was covered with adhesive sealing film and incubated at 37° C. and 100 rpm orbital shaking for 5 hours. […] For sample preparation, an aliquot of the content of each chamber was mixed with the same volume of the blank opposite matrix. In order to define non-specific loss of the compound during this assay, standard solution was created by mixing an aliquot of spiked plasma with blank buffer without dialysis. Samples were diluted 10-fold with 100% acetonitrile with subsequent plasma proteins sedimentation by centrifugation. Supernatants were analysed using a Shimadzu VP HPLC system with a reverse phase column, coupled with a tandem mass spectrometer API 3000 (PE Sciex). The both positive and negative ion modes of the TurbolonSpray ion source were used. […]
The percentage of plasma protein bounded compound and its recovery were calculated using the equations below:
The percentage of plasma protein bounded compound and its recovery were calculated using the values obtained for each compound in the quantification of the 3 samples (in buffer, plasma and standard solution).
The mark [6] stands for this setting: Table 1, MTB growth, H37Rv, 6 days at 37° C., Middlebrook 7H9.
[7] abbreviates: Table 1, cytotoxicity, MTS, read-out: IC50.
The mark [8] stands for this setting: Table 2, MTB growth, H37Rv, 6 days at 37° C., Middlebrook 7H9.
[9] abbreviates: Table 2, cytotoxicity, MTS, read-out: IC50.

For the compound `CCOC(=O)C1CCN(c2ccc3cc(-c4ccc(O)cc4)ccc3n2)CC1` [Compound 3, Ethyl 1-(6-(4-hydroxyphenyl)quinolin-2-yl)piperidine-4-carboxylate], the MIC (commonly the least concentration at which growth counts as inhibited) in data set [1] (setting [6]) was 7.8 to 15.6 µM (≈ 2.94 to 5.87 µg/mL). In addition, the IC50 – broadly, the concentration that gives 50% inhibition – in data set [2] (setting [7]) is more than 100 µM.

On to `CCOC(=O)C1CCN(c2ccc3cc(-c4cnc(OC)nc4)ccc3n2)CC1` [Compound 4, ethyl 1-(6-(2-methoxypyrimidin-5-yl)quinolin-2-yl)piperidine-4-carboxylate], for which the MIC in data set [1] (setting [6]) and in data set [1] (setting [8]) was less than 7.8 µM throughout. Further, the IC50 in data set [2] (setting [7]) and in data set [2] (setting [9]) was more than 100 µM each time.

For `CCOC(=O)C1CCN(c2ccc3cc(-c4ccncc4)ccc3n2)CC1` [Compound 15, ethyl 1-(6-(pyridin-4-yl)quinolin-2-yl)piperidine-4-carboxylate hydrochloride], the MIC in data set [1] is 7.8 to 15.6 µM. The IC50 in data set [2] is more than 100 µM.

Consider `CCOC(=O)C1CCN(c2ccc3cc(-c4ccco4)ccc3n2)CC1` [Compound 16, ethyl 1-(6-(furan-2-yl)quinolin-2-yl)piperidine-4-carboxylate], for which the MIC in data set [1] (setting [6]) was 7.8 to 15.6 µM (≈ 2.73 to 5.47 µg/mL). The IC50 in data set [2] (setting [7]) is more than 100 µM.

For `CCOC(=O)C1CCN(c2ccc3cc(-c4ccc(OC)cc4)ccc3n2)CC1` [Compound 20, ethyl 1-(6-(4-methoxyphenyl)quinolin-2-yl)piperidine-4-carboxylate], the MIC in data set [1] is 7.8 to 15.6 µM (≈ 3.05 to 6.09 µg/mL). In data set [2], the IC50 is more than 100 µM.

Turning to `COc1cccc(-c2ccc3nc(N4CCC(C(=O)O)CC4)ccc3c2)c1` [Compound 22, 1-(6-(3-methoxyphenyl)quinolin-2-yl)piperidine-4-carboxylic acid], the MIC in data set [1] (setting [6]) fell in the range of 7.8 to 15.6 µM (≈ 2.83 to 5.65 µg/mL). For the same compound, the half-maximal inhibitory concentration (IC50) in data set [2] (setting [7]) is more than 100 µM.

Regarding `CCOC(=O)C1CCN(c2ccc3cc(-c4cccc(O)c4)ccc3n2)CC1` [Compound 26, ethyl 1-(6-(3-hydroxyphenyl)quinolin-2-yl)piperidine-4-carboxylate], the half-life (commonly the time needed for the level to fall by half in the phase considered) at 1 μM in data set [3] is more than 2 h. Besides, the minimum inhibitory concentration (MIC) in data set [1] (setting [6]) and in data set [1] (setting [8]) was less than 7.8 µM in each case. Moreover, the logD (in general, lipophilicity at a set pH, counting ionised and neutral species) in data set [4] is more than 4.5. The IC50 in data set [2] (setting [7]) and in data set [2] (setting [9]) was more than 100 µM throughout. The fraction unbound (in general, the share of the substance not bound to proteins or other matrix) at 5 h, 1 μM in data set [5] was not above 0.01.

With `CCOC(=O)C1CCN(c2ccc3cc(-c4cccc(OC)c4)ccc3n2)CC1` [Compound 30, ethyl 1-(6-(3-methoxyphenyl)quinolin-2-yl)piperidine-4-carboxylate], the MIC in data set [1] (setting [6]) is 7.8 to 15.6 µM (≈ 3.05 to 6.09 µg/mL). For the same compound, in data set [2] (setting [7]), the IC50 is more than 100 µM.

Regarding `CCOC(=O)C1CCN(c2ccc3cc(-c4ccc(F)nc4)ccc3n2)CC1` [Compound 35, ethyl 1-(6-(6-fluoropyridin-3-yl)quinolin-2-yl)piperidine-4-carboxylate], the MIC in data set [1] (setting [6]) was in the range of 7.8 to 15.6 µM (≈ 2.96 to 5.92 µg/mL). In data set [2] (setting [7]), the IC50 was more than 100 µM.

With `CCOC(=O)C1CCN(c2ccc3cc(-c4ccnc(F)c4)ccc3n2)CC1` [Compound 37, ethyl 1-(6-(2-fluoropyridin-4-yl)quinolin-2-yl)piperidine-4-carboxylate], the MIC in data set [1] (setting [6]) fell in the range of 7.8 to 15.6 µM (≈ 2.96 to 5.92 µg/mL). For the same compound, the IC50 in data set [2] (setting [7]) is 50 to 100 µM.

Regarding `CCOC(=O)C1CCN(c2ccc3cc(-c4ccnc(C)c4)ccc3n2)CC1` [Compound 40, ethyl 1-(6-(2-methylpyridin-4-yl)quinolin-2-yl)piperidine-4-carboxylate], in data set [1] (setting [6]), the MIC was in the range of 7.8 to 15.6 µM (≈ 2.93 to 5.86 µg/mL). For the same compound, in data set [2] (setting [7]), the half-inhibitory concentration (IC50) was 20 to 50 µM.

For the compound `CCOC(=O)C1CCN(c2ccc3cc(-c4cc(OC)cc(OC)c4)ccc3n2)CC1` [Compound 41, ethyl 1-(6-(3,5-dimethoxyphenyl)quinolin-2-yl)piperidine-4-carboxylate], in data set [1] (setting [6]), the MIC was in the range of 7.8 to 15.6 µM (≈ 3.28 to 6.56 µg/mL). Also, in data set [2] (setting [7]), the IC50 was in the range of 50 to 100 µM.

On to `CCOC(=O)C1CCN(c2ccc3cc(-c4ccc5[nH]ccc5c4)ccc3n2)CC1` [Compound 42, ethyl 1-(6-(1H-indol-5-yl)quinolin-2-yl)piperidine-4-carboxylate], for which the MIC in data set [1] (setting [6]) was 7.8 to 15.6 µM (≈ 3.12 to 6.23 µg/mL). For the same compound, in data set [2] (setting [7]), the IC50 lay within 20 to 50 µM.

In the case of `CCOC(=O)C1CCCN(c2ccc3cc(-c4ccncc4)ccc3n2)C1` (stereo not shown) [Compound 54, ethyl 1-(6-(pyridin-4-yl)quinolin-2-yl)piperidine-3-carboxylate], the MIC in data set [1] (setting [6]) fell in the range of 7.8 to 15.6 µM (≈ 2.82 to 5.64 µg/mL). Moreover, the IC50 in data set [2] (setting [7]) is more than 100 µM.

As for `CCOC(=O)C1CCN(c2ccc3cc(-c4ccc(OC)c(F)c4)ccc3n2)CC1` [Compound 58, ethyl 1-(6-(3-fluoro-4-methoxyphenyl)quinolin-2-yl)piperidine-4-carboxylate], the MIC in data set [1] (setting [6]) and in data set [1] (setting [8]) was less than 7.8 µM in each case.

On to `CCOC(=O)C1CCN(c2ccc3cc(-c4ccc(Cl)c(F)c4)ccc3n2)CC1` [Compound 63, ethyl 1-(6-(4-chloro-3-fluorophenyl)quinolin-2-yl)piperidine-4-carboxylate], for which the MIC in data set [1] (setting [6]) and in data set [1] (setting [8]) was less than 7.8 µM throughout.

In the case of `CCOC(=O)C1CCN(c2ccc3cc(-c4cccc(Cl)c4)ccc3n2)CC1` [Compound 64, ethyl 1-(6-(3-chlorophenyl)quinolin-2-yl)piperidine-4-carboxylate], the MIC in data set [1] (setting [6]) is 7.8 to 15.6 µM (≈ 3.08 to 6.16 µg/mL).

Consider `CCOC(=O)C1CCN(c2ccc3cc(-c4ccncc4)ccc3n2)C1` (stereo not shown) [Compound 67, ethyl 1-(6-(pyridin-4-yl)quinolin-2-yl)pyrrolidine-3-carboxylate], for which the MIC in data set [1] (setting [6]) fell in the range of 7.8 to 15.6 µM (≈ 2.71 to 5.42 µg/mL).

As for `CCOC(=O)C1CCN(c2ccc3cc(-c4cc5ccccc5s4)ccc3n2)CC1` [Compound 68, ethyl 1-(6-(benzo[b]thiophen-2-yl)quinolin-2-yl)piperidine-4-carboxylate], the MIC in data set [1] (setting [6]) lay within 7.8 to 15.6 µM (≈ 3.25 to 6.5 µg/mL).

As for `CCOC(=O)C1CCN(c2ccc3cc(-c4ccccc4C(F)(F)F)ccc3n2)CC1` [Compound 69, ethyl 1-(6-(2-(trifluoromethyl)phenyl)quinolin-2-yl)piperidine-4-carboxylate], the MIC in data set [1] (setting [6]) and in data set [1] (setting [8]) was less than 7.8 µM throughout.

As to `CCOC(=O)C1CCN(c2ccc3cc(-c4ccccc4OC(F)(F)F)ccc3n2)CC1` [Compound 70, ethyl 1-(6-(2-(trifluoromethoxy)phenyl)quinolin-2-yl)piperidine-4-carboxylate], the minimal inhibitory concentration (MIC) in data set [1] (setting [6]) is less than 7.8 µM.

In the case of `CCOC(=O)C1CCN(c2ccc3cc(-c4ccc(F)cc4OC)ccc3n2)CC1` [Compound 71, ethyl 1-(6-(4-fluoro-2-methoxyphenyl)quinolin-2-yl)piperidine-4-carboxylate], in data set [1] (setting [8]), the MIC is less than 7.8 µM.

Take `CCOC(=O)C1CCN(c2ccc3cc(-c4ccc(OC)c(C(F)(F)F)c4)ccc3n2)CC1` [Compound 72, ethyl 1-(6-(4-methoxy-3-(trifluoromethyl)phenyl)quinolin-2-yl)piperidine-4-carboxylate]: in data set [1] (setting [6]), the MIC fell in the range of 7.8 to 15.6 µM (≈ 3.58 to 7.15 µg/mL).

As for `CCOC(=O)C1CCN(c2ccc3cc(-c4cccc(F)c4)ccc3n2)CC1` [Compound 74, ethyl 1-(6-(3-fluorophenyl)quinolin-2-yl)piperidine-4-carboxylate], in data set [1] (setting [6]), the “REMA MIC” value was “+++ (7.8-15.6)”.

On to `CCOC(=O)C1CCN(c2ccc3cc(-c4ccc(F)c(Cl)c4)ccc3n2)CC1` [Compound 75, ethyl 1-(6-(3-chloro-4-fluorophenyl)quinolin-2-yl)piperidine-4-carboxylate], for which the MIC in data set [1] (setting [6]) was 7.8 to 15.6 µM (≈ 3.22 to 6.44 µg/mL).
